Tested on: high fat diet (HFD) rabbit model of metabolic-associated steatohepatitis (MASH)
Assay: HFD rabbit study, prolonged 4-week treatment: fibrosis and inflammation markers mRNA expression
Assay type: in vivo, New Zealand White rabbits
Conditions: HFD rabbits, weeks 9–12, mean±SD, n=7
Description: After 1 week (W) of RD, the animals (n = 44) were randomly assigned to the following groups (Table 1B): • Control rabbits continued to receive a RD for 12 weeks and were treated with vehicle for 5 days a week (days 1–5, p.o.) during the last 4 weeks before culling (RD + 4W Veh group); • Rabbits received a HFD for 8 weeks and were culled (HFD 8W group); • Rabbits received a HFD for 12 weeks and were treated with vehicle for 5 days a week (days 1–5, p.o.) during the last 4 weeks before culling (HFD+4W Veh group); • Rabbits received a HFD for 12 weeks and were treated with GB1211 (0.3 mg/kg) for 5 days a week (days 1–5, p.o.) during the last 4 weeks before culling (HFD + 4W 0.3 mg group); • Rabbits received a HFD for 12 weeks and were treated with GB1211 (1.0 mg/kg) for 5 days a week (days 1–5, p.o.) during the last 4 weeks before culling (HFD + 4W 1.0 mg group); • Rabbits received a HFD for 12 weeks and were treated with GB1211 (5.0 mg/kg) for 5 days a week (days 1–5, p.o.) during the last 4 weeks before culling (HFD + 4W 5.0 mg group).
TRIzol reagent (Life Technologies, Paisley, United Kingdom) and/or RNeasy Mini Kit (Qiagen, Hilden, Germany) were used to isolate total RNA from rabbit liver specimens. RNA concentration and quality were measured using a Nanodrop ND-1000 (Thermo Fisher Scientific) at 260 nm and 280 nm. The OD 260/280 absorbance ratios were between 2.0 and 2.1 for all samples, to confirm RNA integrity and purification. cDNA synthesis was carried out using the iScript™ cDNA Synthesis Kit (Bio-Rad Laboratories, Hercules, CA), with 100 ng of mRNA in 20 µL reaction volume in accordance with the following protocol: 5 min at 25°C, 20 min at 46°C and 5 min at 85°C, followed by refrigeration at 4°C.
Semi-quantitative real-time RT-PCR (qRT-PCR) amplification and detection was performed with SsoAdvanced™ universal SYBR® Supermix and a CFX96 Two-Color Real-Time PCR Detection System (both Bio-Rad Laboratories) with the following thermal cycler conditions: 40 cycles at 95°C for 15 s and 60°C for 1 min. Specific PCR primers for rabbit target genes were designed on sequences available at the National Center for Biotechnology Information GenBank (http://www.ncbi.nlm.nih.gov) or Ensemble Genome (http://www.ensembl.org).
The 18S ribosomal RNA subunit was quantified with a predeveloped assay (Hs99999901_s1, Life Technologies) and used as the housekeeping gene for the relative quantitation of the target genes based on the comparative threshold cycle (Ct) 2^−ΔΔCt method ([Livak and Schmittgen, 2001]), with some modifications. In detail, we used the vehicle control groups as the calibrator in each analysis, so that the calculations would provide the fold-change of the other groups relative to controls.

With `OC[C@H]1O[C@H](Sc2cncc(Br)c2)[C@H](O)[C@@H](n2cc(-c3cc(F)c(F)c(F)c3)nn2)[C@H]1O` [selvigaltin] the “CD4 liver mRNA expression” value (0.3 mg/kg p.o.) was 1.96 ± 0.51 fold-change vs. RD+Veh, the “COL1A1 liver mRNA expression” value (0.3 mg/kg p.o.) was 45.14 ± 43.26 fold-change vs. RD+Veh and the “COL3A1 liver mRNA expression” value (0.3 mg/kg p.o.) was 12.38 ± 9.89 fold-change vs. RD+Veh. For the same molecule, the “COX-2 liver mRNA expression” value (0.3 mg/kg p.o.) was 8.60 ± 4.94 fold-change vs. RD+Veh, the “EDN1 liver mRNA expression” value (0.3 mg/kg p.o.) was 1.08 ± 0.33 fold-change vs. RD+Veh and the “EDNRA liver mRNA expression” value (0.3 mg/kg p.o.) was 3.66 ± 2.05 fold-change vs. RD+Veh. The “EDNRB liver mRNA expression” value (0.3 mg/kg p.o.) was 1.60 ± 0.42 fold-change vs. RD+Veh, the “FN1 liver mRNA expression” value (0.3 mg/kg p.o.) was 1.79 ± 0.76 fold-change vs. RD+Veh and the “FOXP3 liver mRNA expression” value (0.3 mg/kg p.o.) was 2.85 ± 1.40 fold-change vs. RD+Veh. The “IL1β liver mRNA expression” value (0.3 mg/kg p.o.) was 1.33 ± 0.37 fold-change vs. RD+Veh, the “IL2 liver mRNA expression” value (0.3 mg/kg p.o.) was 2.98 ± 1.16 fold-change vs. RD+Veh and the “IL6 liver mRNA expression” value (0.3 mg/kg p.o.) was 2.43 ± 1.89 fold-change vs. RD+Veh. The “LGALS3 liver mRNA expression” value (0.3 mg/kg p.o.) was 63.90 ± 24.46 fold-change vs. RD+Veh, the “MCP1 liver mRNA expression” value (0.3 mg/kg p.o.) was 7.70 ± 6.93 fold-change vs. RD+Veh and the “PAI-1 liver mRNA expression” value (0.3 mg/kg p.o.) was 4.91 ± 1.83 fold-change vs. RD+Veh. For the same molecule, the “RAGE liver mRNA expression” value (0.3 mg/kg p.o.) was 1.99 ± 1.10 fold-change vs. RD+Veh, the “SNAI1 liver mRNA expression” value (0.3 mg/kg p.o.) was 2.05 ± 2.05 fold-change vs. RD+Veh and the “SNAI2 liver mRNA expression” value (0.3 mg/kg p.o.) was 2.28 ± 1.03 fold-change vs. RD+Veh. The “TGFβ1 liver mRNA expression” value (0.3 mg/kg p.o.) was 4.06 ± 1.62 fold-change vs. RD+Veh, the “TGFβ3 liver mRNA expression” value (0.3 mg/kg p.o.) was 1.73 ± 0.80 fold-change vs. RD+Veh and the “TLR4 liver mRNA expression” value (0.3 mg/kg p.o.) was 3.89 ± 1.45 fold-change vs. RD+Veh. For the same molecule, the “TNFα liver mRNA expression” value (0.3 mg/kg p.o.) was 4.39 ± 0.96 fold-change vs. RD+Veh, the “αSMA liver mRNA expression” value (0.3 mg/kg p.o.) was 4.64 ± 4.05 fold-change vs. RD+Veh and the “CD4 liver mRNA expression” value (1.0 mg/kg p.o.) was 1.33 ± 0.66 fold-change vs. RD+Veh. For the same molecule, the “COL1A1 liver mRNA expression” value (1.0 mg/kg p.o.) was 9.00 ± 6.03 fold-change vs. RD+Veh, the “COL3A1 liver mRNA expression” value (1.0 mg/kg p.o.) was 3.49 ± 2.11 fold-change vs. RD+Veh and the “COX-2 liver mRNA expression” value (1.0 mg/kg p.o.) was 6.14 ± 3.84 fold-change vs. RD+Veh. For the same molecule, the “EDN1 liver mRNA expression” value (1.0 mg/kg p.o.) was 0.99 ± 0.28 fold-change vs. RD+Veh, the “EDNRA liver mRNA expression” value (1.0 mg/kg p.o.) was 2.13 ± 1.20 fold-change vs. RD+Veh and the “EDNRB liver mRNA expression” value (1.0 mg/kg p.o.) was 1.58 ± 0.31 fold-change vs. RD+Veh. For the same molecule, the “FN1 liver mRNA expression” value (1.0 mg/kg p.o.) was 1.06 ± 0.22 fold-change vs. RD+Veh, the “FOXP3 liver mRNA expression” value (1.0 mg/kg p.o.) was 1.39 ± 0.43 fold-change vs. RD+Veh and the “IL1β liver mRNA expression” value (1.0 mg/kg p.o.) was 1.18 ± 0.45 fold-change vs. RD+Veh. The “IL2 liver mRNA expression” value (1.0 mg/kg p.o.) was 1.85 ± 1.16 fold-change vs. RD+Veh, the “IL6 liver mRNA expression” value (1.0 mg/kg p.o.) was 0.58 ± 0.22 fold-change vs. RD+Veh and the “LGALS3 liver mRNA expression” value (1.0 mg/kg p.o.) was 50.04 ± 15.84 fold-change vs. RD+Veh. For the same molecule, the “MCP1 liver mRNA expression” value (1.0 mg/kg p.o.) was 4.23 ± 1.50 fold-change vs. RD+Veh, the “PAI-1 liver mRNA expression” value (1.0 mg/kg p.o.) was 4.93 ± 2.25 fold-change vs. RD+Veh and the “RAGE liver mRNA expression” value (1.0 mg/kg p.o.) was 1.14 ± 0.36 fold-change vs. RD+Veh. For the same molecule, the “SNAI1 liver mRNA expression” value (1.0 mg/kg p.o.) was 1.30 ± 1.21 fold-change vs. RD+Veh, the “SNAI2 liver mRNA expression” value (1.0 mg/kg p.o.) was 1.15 ± 0.42 fold-change vs. RD+Veh and the “TGFβ1 liver mRNA expression” value (1.0 mg/kg p.o.) was 2.87 ± 1.14 fold-change vs. RD+Veh. For the same molecule, the “TGFβ3 liver mRNA expression” value (1.0 mg/kg p.o.) was 1.20 ± 0.54 fold-change vs. RD+Veh, the “TLR4 liver mRNA expression” value (1.0 mg/kg p.o.) was 3.63 ± 0.90 fold-change vs. RD+Veh and the “TNFα liver mRNA expression” value (1.0 mg/kg p.o.) was 3.67 ± 2.21 fold-change vs. RD+Veh. The “αSMA liver mRNA expression” value (1.0 mg/kg p.o.) was 1.75 ± 1.34 fold-change vs. RD+Veh, the “CD4 liver mRNA expression” value (5.0 mg/kg p.o.) was 2.60 ± 1.97 fold-change vs. RD+Veh and the “COL1A1 liver mRNA expression” value (5.0 mg/kg p.o.) was 25.20 ± 23.86 fold-change vs. RD+Veh. For the same molecule, the “COL3A1 liver mRNA expression” value (5.0 mg/kg p.o.) was 7.26 ± 6.59 fold-change vs. RD+Veh, the “COX-2 liver mRNA expression” value (5.0 mg/kg p.o.) was 13.87 ± 22.12 fold-change vs. RD+Veh and the “EDN1 liver mRNA expression” value (5.0 mg/kg p.o.) was 1.09 ± 0.51 fold-change vs. RD+Veh. For the same molecule, the “EDNRA liver mRNA expression” value (5.0 mg/kg p.o.) was 3.04 ± 2.38 fold-change vs. RD+Veh, the “EDNRB liver mRNA expression” value (5.0 mg/kg p.o.) was 2.49 ± 2.19 fold-change vs. RD+Veh and the “FN1 liver mRNA expression” value (5.0 mg/kg p.o.) was 1.51 ± 0.74 fold-change vs. RD+Veh. For the same molecule, the “FOXP3 liver mRNA expression” value (5.0 mg/kg p.o.) was 3.57 ± 1.87 fold-change vs. RD+Veh, the “IL1β liver mRNA expression” value (5.0 mg/kg p.o.) was 1.32 ± 0.62 fold-change vs. RD+Veh and the “IL2 liver mRNA expression” value (5.0 mg/kg p.o.) was 3.33 ± 2.66 fold-change vs. RD+Veh. For the same molecule, the “IL6 liver mRNA expression” value (5.0 mg/kg p.o.) was 1.59 ± 1.33 fold-change vs. RD+Veh, the “LGALS3 liver mRNA expression” value (5.0 mg/kg p.o.) was 67.63 ± 53.87 fold-change vs. RD+Veh and the “MCP1 liver mRNA expression” value (5.0 mg/kg p.o.) was 5.47 ± 2.52 fold-change vs. RD+Veh. For the same molecule, the “PAI-1 liver mRNA expression” value (5.0 mg/kg p.o.) was 5.06 ± 3.07 fold-change vs. RD+Veh, the “RAGE liver mRNA expression” value (5.0 mg/kg p.o.) was 1.73 ± 0.67 fold-change vs. RD+Veh and the “SNAI1 liver mRNA expression” value (5.0 mg/kg p.o.) was 2.32 ± 1.38 fold-change vs. RD+Veh. The “SNAI2 liver mRNA expression” value (5.0 mg/kg p.o.) was 1.68 ± 0.79 fold-change vs. RD+Veh, the “TGFβ1 liver mRNA expression” value (5.0 mg/kg p.o.) was 3.96 ± 2.80 fold-change vs. RD+Veh and the “TGFβ3 liver mRNA expression” value (5.0 mg/kg p.o.) was 1.87 ± 0.71 fold-change vs. RD+Veh. For the same molecule, the “TLR4 liver mRNA expression” value (5.0 mg/kg p.o.) was 3.90 ± 1.30 fold-change vs. RD+Veh, the “TNFα liver mRNA expression” value (5.0 mg/kg p.o.) was 3.80 ± 1.84 fold-change vs. RD+Veh and the “αSMA liver mRNA expression” value (5.0 mg/kg p.o.) was 3.17 ± 2.57 fold-change vs. RD+Veh.

From paper PMC11322497 (Frontiers in Pharmacology, 2024)
